Entries after “also recorded” stand apart in the source; their conditions may differ.
Key:
[1] = Franz Diffusion Cell, CBD flux from reservoir transdermal device through human cadaver epidermis; format: in vitro ADME
Procedure: The effects of using a hydrophobic, porous membrane versus a hydrophilic, porous membrane (such as membrane 24) in reservoir transdermal device 20 are studied in this example. A mixture is formed by dissolving CBD powder in ethanol to yield a solution comprising 10 percent by weight CBD and 90 percent by weight ethanol. The backing 22 is an occlusive backing film (PE/PET from 3M). Hydroxy ethyl cellulose is added to the solution to yield a thixotropic preparation 27. A volume of 300 μL of the preparation is placed in the reservoir 26.
The skin adhesive 30 is a BIO PSA 7-4301 adhesive coated to a thickness of 15 g/m^2 on side 36 of membrane 24. An overlay adhesive patch is placed over the reservoir which forms an island in the middle. The overlay assures adhesion of the reservoir to the skin. The device 20 is contacted with a human cadaver epidermis, and diffusion through the epidermis is measured using the Franz Diffusion Cell method.
In a first run, membrane 24 is a Lydall® Evopor™ 5E02A, hydrophilic, microporous membrane (of 0.2 μm pore size). In a second run, the device 20 is constructed similarly, but membrane 24 is a hydrophobic Lydall® Solupor™ 7P03A porous membrane.
The reservoir device 20 of Example 1 is used, but instead of using ethanol alone as the liquid carrier, a mixture of ethanol and water is used wherein the ethanol comprises 70 percent by weight of the ethanol/water mixture, and water comprises 30 percent by weight of the ethanol/water mixture. The amount of CBD by weight of the combination of CBD and ethanol/water is 5 percent, and the amount of ethanol/water is 91.5 percent. The gelling agent is hydroxyethylcellulose, which is present in an amount of about 3.5% by weight of the preparation 27. […]
The device 20 is contacted with a human cadaver epidermis, and diffusion through the epidermis is measured using the Franz Diffusion Cell method. In a first run, the hydrophilic, porous membrane 24 of Example 1 is used. In a second run, the membrane 24 is omitted so that CBD diffuses directly through the skin adhesive 30.
This example is conducted using three reservoir transdermal devices such as those of Example 1, with each having the hydrophilic, porous membrane described therein. In each case, the preparation includes a mixture of CBD and a liquid carrier with ten (10) percent CBD by weight of the CBD/liquid carrier mixture. Three runs are conducted, each with a device that includes a different liquid carrier in its preparation 27: 1, 2 propylene glycol, PEG-300, and oleic acid. Diffusion through a human cadaver epidermis is measured using the Franz Diffusion Method.
This example is similar to Example 3, except that an ethanol carrier is also tested. As stated above, FIG. 6 is a graph depicting the cumulative flux (μg/cm^2) of CBD through a human cadaver epidermis over a six hour period from solutions comprising ten (10) percent by weight CBD and 90 percent by weight of one of four liquid carriers.

[2] = Franz Diffusion Cell, CBD flux from monolithic adhesive patch through human cadaver skin; format: in vitro ADME; settings: monolithic patches: Vistanex LM 5% or 10% CBD, DuroTak 87-2516 10% CBD, BIO PSA 7-4302 5% CBD (FIG. 7)
Procedure: Formulations of monolithic patches were prepared by solubilizing CBD in different adhesives and CBD transdermal flux was performed through human cadaver skin using Franz Diffusion Cell method. We found the highest transdermal flux of CBD from a formulation that comprises PIB adhesive and 10% CBD.
A monolithic transdermal device 40 is constructed using a matrix 44 of pure CBD and three different adhesives. A first device 40 includes a PE/PET backing and a matrix 44 comprising 95 percent Vistanex) LM polyisobutylene adhesive by weight of matrix 44 mixed with 5 percent substantially pure CBD by weight of matrix 44. A second device is similarly constructed, but the amount of CBD in the matrix 44 is 10 percent by weight of the matrix 44, and the amount of Vistanex LM is 90 percent by weight of the matrix 44. A third patch is constructed using a DuroTak 87-2516 adhesive in an amount of 90 percent by weight of matrix 44 and 10 percent CBD by weight of matrix 44, and a fourth patch is constructed using a BIO PSA 7-4302 adhesive in an amount of 95 percent by weight of matrix 44 and 5 percent CBD by weight of matrix 44.

[3] = 10% CBD / 90% liquid carrier, six hour period (FIG. 6)

C=C(C)[C@@H]1CCC(C)=C[C@H]1c1c(O)cc(CCCCC)cc1O [CBD, Cannabidiol]
permeability of CBD through the skin, with versus without membrane 24 ([1]; 5% CBD in ethanol/water 70/30, hydrophilic porous membrane used or omitted (FIG. 4)): the same
cumulative flux of CBD, hydrophilic membrane device versus hydrophobic membrane device ([1]; 10% CBD / 90% ethanol, hydrophilic Evopor 5E02A membrane, after about 9 hours (FIG. 3)): significantly exceeds
rate of transfer of CBD through the skin, oleic acid versus 1,2 propylene glycol or PEG-300 ([1]; 10% CBD / 90% liquid carrier, hydrophilic membrane, six hour period (FIG. 5)): significantly better
transfer of CBD through the skin, ethanol relative to 1,2 propylene glycol and PEG-300 [1, 3]: superior
transfer of CBD through the skin, oleic acid relative to ethanol, 1,2 propylene glycol and PEG-300 [1, 3]: superior
expected daily dose, reservoir device relative to monolithic patch of the same skin contact area ([1]; 20 cm^2 skin contact area): six times higher
cumulative flux of cannabidiol (CBD) ([1]; reservoir device, 5% by weight CBD and 70% by weight ethanol liquid carrier, at 12 hours): 110 micrograms/cm^2
cumulative flux of cannabidiol (CBD) ([1]; reservoir device, 5% by weight CBD and 70% by weight ethanol liquid carrier, at 24 hours): 300 micrograms/cm^2
cumulative flux of CBD, asymptotic value ([1]; reservoir device, 10% CBD / 90% ethanol, hydrophobic Solupor 7P03A porous membrane (FIG. 3)): about 300 μg/cm^2
cumulative flux of cannabidiol (CBD) ([1]; reservoir device, 10% by weight CBD and 90% by weight ethanol liquid carrier, hydrophilic porous membrane, at 7 hours): 150 micrograms/cm^2
cumulative flux of cannabidiol (CBD) ([1]; reservoir device, 10% by weight CBD and 90% by weight ethanol liquid carrier, hydrophilic porous membrane, at 17 hours): 700 micrograms/cm^2
cumulative flux of cannabidiol (CBD) ([1]; reservoir device, 10% by weight CBD and 90% by weight oleic acid, over six hours): 180 micrograms/cm^2
cumulative flux of cannabidiol (CBD) ([1]; reservoir device, ethanol liquid carrier, over 6 hours): 70 micrograms/cm^2
transdermal delivery of CBD from saturated ethanol solution versus monolithic patch ([1]; reservoir patch formulation): significantly higher
transdermal flux of CBD, PIB (Vistanex LM) adhesive / 10% CBD relative to the other monolithic formulations [2]: superior; also recorded: highest
